System: IGROV1 complex spheroids (HUVEC, MSC), viability % test/control
Experiment: Anticancer human tumor IGROV1 cell line growth inhibition [GQUAD];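 note: spheroids exposed to compounds for 7 days before readout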;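 for viability, T/C: 100% = DMSO vehicle control viability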
Settings: for IC50: curve of first compound; for viability, T/C: stronger effect = lower value
Procedure, shortened: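 Viability of tumor cells grown as complex spheroids with endothelial and stromal cells, exposed to drug combinations. Top concentration at or near clinical Cmax (else 10 microM), diluted in half-log increments.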

[1] = second compound 0.0316 µM, first compound 0.0316 µM
[2] = second compound 0.0316 µM, first compound 0.1 µM
[3] = second compound 0.0316 µM, first compound 0.316 µM
[4] = second compound 0.0316 µM, first compound 1 µM
[5] = second compound 0.0316 µM, first compound 3.16 µM
[6] = second compound 0.0316 µM, first compound 10 µM
[7] = second compound 0.1 µM, first compound 0.0316 µM
[8] = second compound 0.1 µM, first compound 0.1 µM
[9] = second compound 0.1 µM, first compound 0.316 µM
[10] = second compound 0.1 µM, first compound 1 µM
[11] = second compound 0.1 µM, first compound 3.16 µM
[12] = second compound 0.1 µM, first compound 10 µM
[13] = second compound 0.316 µM, first compound 0.0316 µM
[14] = second compound 0.316 µM, first compound 0.1 µM
[15] = second compound 0.316 µM, first compound 0.316 µM
[16] = second compound 0.316 µM, first compound 1 µM
[17] = second compound 0.316 µM, first compound 3.16 µM
[18] = second compound 0.316 µM, first compound 10 µM
[19] = second compound 1 µM, first compound 0.0316 µM
[20] = second compound 1 µM, first compound 0.1 µM
[21] = second compound 1 µM, first compound 0.316 µM
[22] = second compound 1 µM, first compound 1 µM
[23] = second compound 1 µM, first compound 3.16 µM
[24] = second compound 1 µM, first compound 10 µM
[25] = second compound 3.16 µM, first compound 0.0316 µM
[26] = second compound 3.16 µM, first compound 0.1 µM
[27] = second compound 3.16 µM, first compound 0.316 µM
[28] = second compound 3.16 µM, first compound 1 µM
[29] = second compound 3.16 µM, first compound 3.16 µM
[30] = second compound 3.16 µM, first compound 10 µM
[31] = second compound 10 µM, first compound 0.0316 µM
[32] = second compound 10 µM, first compound 0.1 µM
[33] = second compound 10 µM, first compound 0.316 µM
[34] = second compound 10 µM, first compound 1 µM
[35] = second compound 10 µM, first compound 3.16 µM
[36] = second compound 10 µM, first compound 10 µM

Which results are given for `COc1ccc([C@@H](O)c2cc(-c3ncnc4cc(N5CCOCC5)ccc34)c(F)cc2Cl)nn1` + CN(C)c1ccc(Nc2c3ccc(NC(=O)CCN4CCCC4)cc3nc3cc(NC(=O)CCN4CCCC4)ccc23)cc1?
IC50 (second compound 0.0316 µM): 1420 nM; IC50 (second compound 0.1 µM): 709 nM; IC50 (second compound 0.316 µM): 718 nM; IC50 (second compound 1 µM): 659 nM; IC50 (second compound 3.16 µM): 348 nM; IC50 (second compound 10 µM): 107 nM; viability, T/C [1]: 89.1%; viability, T/C [2]: 89.1%; viability, T/C [3]: 94.4%; viability, T/C [4]: 62%; viability, T/C [5]: 20.7%; viability, T/C [6]: 7.56%; viability, T/C [7]: 88.4%; viability, T/C [8]: 72.3%; viability, T/C [9]: 74%; viability, T/C [10]: 40.1%; viability, T/C [11]: 14.7%; viability, T/C [12]: 6.35%; viability, T/C [13]: 93.1%; viability, T/C [14]: 82.9%; viability, T/C [15]: 71%; viability, T/C [16]: 41.8%; viability, T/C [17]: 17.6%; viability, T/C [18]: 6.18%; viability, T/C [19]: 63.1%; viability, T/C [20]: 82.2%; viability, T/C [21]: 74%; viability, T/C [22]: 37.1%; viability, T/C [23]: 11.4%; viability, T/C [24]: 5.01%; viability, T/C [25]: 69.4%; viability, T/C [26]: 82.5%; viability, T/C [27]: 49.1%; viability, T/C [28]: 21.6%; viability, T/C [29]: 8.01%; viability, T/C [30]: 5.13%; viability, T/C [31]: 56.6%; viability, T/C [32]: 52.6%; viability, T/C [33]: 30.4%; viability, T/C [34]: 13.7%; viability, T/C [35]: 5.94%; viability, T/C [36]: 4.92%

How did the IC50 (second compound 0.0316 µM) turn out when `COc1cc(C2c3cc4c(cc3C(OC3OC5COC(C)OC5C(O)C3O)C3COC(=O)C23)OCO4)cc(OC)c1O` (stereo unspecified) + Cc1cnc(CNC(=O)c2c(=O)c3ccc(N4CCCN(C)CC4)nc3n3c2sc2ccccc23)cn1 was run?
The IC50 was 56.4 nM.

What about the IC50 (second compound 0.1 µM) of the same molecule?
Its IC50 is < 31.6 nM.

What about the IC50 (second compound 0.316 µM) of the same molecule?
The IC50 was < 31.6 nM.

What about the IC50 (second compound 1 µM) of the same molecule?
Its IC50 is < 31.6 nM.

What about the IC50 (second compound 3.16 µM) of the same molecule?
The IC50 was < 31.6 nM.

What about the IC50 (second compound 10 µM) of the same molecule?
The IC50 was < 31.6 nM.

What about the viability, T/C [1] of the same molecule?
The viability, T/C was 67.3%.

And the viability, T/C [2]?
Its viability, T/C is 32.8%.

What about the viability, T/C [3] of the same molecule?
Its viability, T/C is 16.3%.

And the viability, T/C [4]?
Its viability, T/C is 13.5%.

What about the viability, T/C [5] of the same molecule?
Its viability, T/C is 8.96%.

What about the viability, T/C [6] of the same molecule?
Its viability, T/C is 4.09%.

And the viability, T/C [7]?
Its viability, T/C is 37.6%.

And the viability, T/C [8]?
Its viability, T/C is 27.9%.

And the viability, T/C [9]?
The viability, T/C was 16%.

And the viability, T/C [10]?
Its viability, T/C is 10.6%.

And the viability, T/C [11]?
The viability, T/C was 8.64%.

What about the viability, T/C [12] of the same molecule?
Its viability, T/C is 5.71%.

And the viability, T/C [13]?
Its viability, T/C is 25.1%.

What about the viability, T/C [14] of the same molecule?
The viability, T/C was 19%.

What about the viability, T/C [15] of the same molecule?
The viability, T/C was 14.4%.

What about the viability, T/C [16] of the same molecule?
Its viability, T/C is 8.91%.

What about the viability, T/C [17] of the same molecule?
Its viability, T/C is 8.97%.

And the viability, T/C [18]?
The viability, T/C was 5.79%.

What about the viability, T/C [19] of the same molecule?
Its viability, T/C is 12.8%.

What about the viability, T/C [20] of the same molecule?
The viability, T/C was 13.7%.

What about the viability, T/C [21] of the same molecule?
Its viability, T/C is 13.6%.

And the viability, T/C [22]?
The viability, T/C was 11%.

And the viability, T/C [23]?
Its viability, T/C is 7.71%.

And the viability, T/C [24]?
The viability, T/C was 6.49%.

What about the viability, T/C [25] of the same molecule?
Its viability, T/C is 9.53%.

And the viability, T/C [26]?
Its viability, T/C is 11.8%.

What about the viability, T/C [27] of the same molecule?
The viability, T/C was 9.99%.

What about the viability, T/C [28] of the same molecule?
The viability, T/C was 9.79%.

And the viability, T/C [29]?
Its viability, T/C is 9.02%.

And the viability, T/C [30]?
Its viability, T/C is 5.67%.

And the viability, T/C [31]?
The viability, T/C was 9.66%.

What about the viability, T/C [32] of the same molecule?
The viability, T/C was 11%.

And the viability, T/C [33]?
The viability, T/C was 10.7%.

What about the viability, T/C [34] of the same molecule?
The viability, T/C was 9.61%.

What about the viability, T/C [35] of the same molecule?
The viability, T/C was 9.67%.

And the viability, T/C [36]?
The viability, T/C was 6.31%.

Which results are given for `Cc1cccc(N(C)C(=O)C2C(O)CCN2c2nc(C)cc(C(F)(F)F)c2C#N)c1` (stereo unspecified) + Cc1[nH]c2ccc(F)cc2c1-c1nc2c3cccnc3c3ncccc3c2[nH]1?
IC50 (second compound 0.0316 µM): > 10000 nM; IC50 (second compound 0.1 µM): > 10000 nM; IC50 (second compound 0.316 µM): > 10000 nM; IC50 (second compound 1 µM): < 31.6 nM; IC50 (second compound 3.16 µM): < 31.6 nM; IC50 (second compound 10 µM): < 31.6 nM; viability, T/C [1]: 108%; viability, T/C [2]: 82.3%; viability, T/C [3]: 105%; viability, T/C [4]: 76.1%; viability, T/C [5]: 98%; viability, T/C [6]: 100%; viability, T/C [7]: 105%; viability, T/C [8]: 82.2%; viability, T/C [9]: 107%; viability, T/C [10]: 69.1%; viability, T/C [11]: 105%; viability, T/C [12]: 105%; viability, T/C [13]: 83.7%; viability, T/C [14]: 53.2%; viability, T/C [15]: 70%; viability, T/C [16]: 78.8%; viability, T/C [17]: 94.7%; viability, T/C [18]: 76.3%; viability, T/C [19]: 4%; viability, T/C [20]: 6.22%; viability, T/C [21]: 5.36%; viability, T/C [22]: 4.57%; viability, T/C [23]: 4.11%; viability, T/C [24]: 2.68%; viability, T/C [25]: 3.63%; viability, T/C [26]: 4.69%; viability, T/C [27]: 4.7%; viability, T/C [28]: 4.75%; viability, T/C [29]: 3.97%; viability, T/C [30]: 2.92%; viability, T/C [31]: 4.3%; viability, T/C [32]: 3.62%; viability, T/C [33]: 4.75%; viability, T/C [34]: 3.64%; viability, T/C [35]: 4.04%; viability, T/C [36]: 3.25%

Reference: PubChem BioAssay AID2060486 (Molecular Pharmacology Branch, DTP, NCI, 2025)
